The source of these data is patent publication US20140377201A1, “SKIN-WHITENING COMPOSITION CONTAINING EXTRACTS FROM TREES INCLUDING PAPER MULBERRY” (Amorepacific Corporation, priority 2010, published 2014).

One assay concerns B16/F10 melanoma cells. As to the kind of experiment: Melanin production inhibitory activity using B16/F10 melanoma cells. The format is cell-based. To be noted: 50 μg/ml of arbutin; incubated for 3 days; absorbance at 405 nm. As to the method:
Samples, containing 0.001 wt % of each of the extracts of Examples 1 to 9 and Comparative Examples 1 to 3, and 50 /μg/ml of arbutin, were used as test materials. Each of the test materials was added to a culture of B16/F10 melanoma cells (Korean Cell Line Bank) at a given concentration and incubated for 3 days. The medium as removed, and the cells were washed with PBS and lysed with 1N NaOH, and the absorbance at 405 nm was measured. As a control, cells to which no test material was added were used. The skin whitening effects of the test materials were measured by measuring the melanin production inhibitory activity of each test material in comparison with the content of melanin in the control. Melanin production inhibition (%) was calculated using the following equation 2, and the calculation results are shown in Table 2 below.
Melanin production inhibition (%)=100−(absorbance of each test material/absorbance of control)×100 [Equation 2]

For assay [1], the system named is tyrosinase (SIGMA) extracted from mushrooms. As to the kind of experiment: Tyrosinase inhibitory effect. The format is biochemical. The settings on record: positive control, 40 μg/ml of kojic acid; substrate tyrosine; 37° C.; absorbance at 475 nm. How it is done:
The enzyme tyrosinase used in this Test Example was a tyrosinase (SIGMA) extracted from mushrooms. First, the substrate tyrosine was dissolved in distilled water at a concentration of 0.3 mg/ml, and 1.0 ml of the solution was placed in each test tube. Then, 1.0 ml of potassium-phosphate buffer (0.1 M, pH 6.8) and 0.7 ml of distilled water were added thereto, thereby preparing a mixed solution. […] Then, the test tube containing the reaction solution was quenched in ice water to stop the reaction, and the absorbance at 475 nm was measured with a photoelectric spectrophotometer. Then, the tyrosinase inhibitory activity of each of the extracts was calculated using the following equation 1, and the results of the calculation are shown in Table 1 below. Tyrosinase inhibition (%)=100−(absorbance of each extract/absorbance of control×100 [Equation 1]

Each structure is given as a SMILES string.

In the case of `OC[C@H]1O[C@@H](Oc2ccc(O)cc2)[C@H](O)[C@@H](O)[C@@H]1O` [Arbutin, arbutin], the “Melanin production inhibition (%)” value in the assay with B16/F10 melanoma cells stood at 48%. Take `O=c1cc(CO)occ1O` [Kojic acid, kojic acid]: in assay [1], the “Tyrosinase inhibition (%)” value turned out to be 51%.
